Assay [1] relates to primary CSB-deficient human fibroblasts. In words: RNA isolation and real-time PCR, CSB fibroblasts. The class given is cell-based. The following applies: Choline 100 mM, alone or combined. As for the experimental part: (§1) 200 ng of purified RNA were used for cDNA synthesis using SuperScript reverse transcriptase (Thermo Fisher). Expression levels of the genes PKM1, PKM2, MT-ATP6, MT-ATP8, MT-ND1, MT-ND3, TFAM, SOD2, AKR1B1, HSPA2 and TFPI2 were analyzed using a CFX Connect Real-Time PCR detection system and SYBR Green Supermix (both from Bio-Rad). Expression levels of the genes mentioned above were normalized in comparison to the housekeeper genes 18S (for experiments with XPA-deficient fibroblasts) or β2-microglobulin (for experiments with CSB-deficient fibroblasts).
200 ng of purified RNA were used for cDNA synthesis using SuperScript reverse transcriptase (Thermo Fisher). Expression levels of selected genes were analyzed using a CFX Connect Real-Time PCR detection system and SYBR Green Supermix (both from Bio-Rad).

The test system of assay [2] is primary normal human dermal fibroblasts (NHF). In words: ATP immunofluorescence microscopy, NHF. It counts as cell-based. Conditions: Choline 100 mM, Acetate 10 mM, alone or combined.
Protocol: Primary NHF and XPA-deficient fibroblasts were grown on chamber glass slides (Sarstedt) in growth medium containing 15% FCS. 48 hours before UVB irradiation, medium was removed, cells were washed with PBS and received growth medium containing 1% FCS. 24 hours later, medium was removed, and cells received growth medium (1% FCS) containing Choline (100 mM) and Acetate (10 mM). Control cells received normal growth medium supplied with 1% FCS. 24 hours later, medium was removed, cells were washed with PBS and were irradiated with UVB in fresh PBS. Unirradiated control (Sham) cells grown in a second chamber were treated essentially equal but were not exposed to UVB. After irradiation, PBS was removed, and cells were treated with Choline/Acetate or control growth medium. 24 hours later, medium was removed, cells were washed with PBS and fixed with 2% paraformaldehyde. For immunofluorescence staining of ATP and the ATP5A subunit of the mitochondrial ATP synthase, cells were permeabilized with PBS containing 0.1% Triton X-100 and incubated with an anti-ATP antibody raised in rabbit (MyBioSource) and an anti-ATP5A antibody raised in mouse (Abcam) overnight at 4° C. […] Cells were incubated with anti-mouse and anti-rabbit secondary antibodies either labeled with a green (Alexa Fluor 488, Thermo Fisher) or with a red fluorescence dye (Alexa Fluor 594, Thermo Fisher) for 2 hours at room temperature. […] Slides were mounted using an anti-fade mounting medium (Southern Biotech) and analyzed with a fluorescence microscope (Zeiss).
As described herein above for FIG. 2 B, further primary normal human dermal fibroblasts (NHF) and XPA-deficient fibroblasts were grown on chamber glass slides (Sarstedt) in growth medium containing 15% FCS. […] Cells were incubated with anti-mouse and anti-rabbit secondary antibodies either labeled with a green (Alexa Fluor 488, Thermo Fisher) or with a red fluorescence dye (Alexa Fluor 594, Thermo Fisher) for 2 hours at room temperature. […] Slides were mounted using an anti-fade mounting medium (Southern Biotech) and analyzed with a fluorescence microscope (Zeiss). […]
The test system of assay [3] is primary CSB-deficient human fibroblasts. The following applies: Example 2.1; Sham and UVB; Choline 100 mM, Acetate 10 mM, alone or combined; FIG. 11.
Protocol: As described herein above for FIG. 2 B, primary NHF and CSB-deficient fibroblasts were grown on chamber glass slides (Sarstedt) in growth medium containing 15% FCS. 48 hours before UVB irradiation, medium was removed, cells were washed with PBS and received growth medium containing 1% FCS. 24 hours later, medium was removed, and cells received growth medium (1% FCS) containing either Choline (100 mM), Acetate (10 mM), or a combination of Choline (100 mM) and Acetate (10 mM) (Chol/Ac). Control cells received normal growth medium supplied with 1% FCS. 24 hours later, medium was removed, cells were washed with PBS and were irradiated with UVB (FIG. 11 B) in fresh PBS. Unirradiated control (Sham) cells (FIG. 11 A) grown in a second chamber were treated essentially equal but were not exposed to UVB. After irradiation, PBS was removed and cells were treated again with the respective compounds or control growth medium. 24 hours later, medium was removed, cells were washed with PBS and fixed with 2% paraformaldehyde. […] Cells were incubated with anti-mouse and anti-rabbit secondary antibodies either labeled with a green (Alexa Fluor 488, Thermo Fisher) or with a red fluorescence dye (Alexa Fluor 594, Thermo Fisher) for 2 hours at room temperature. […] Slides were mounted using an anti-fade mounting medium (Southern Biotech) and analyzed with a fluorescence microscope (Zeiss).
The test system of assay [4] is primary XPA-deficient human fibroblasts. In words: RNA isolation and real-time PCR, XPA fibroblasts. The class given is cell-based. The following applies: 24 hours after UVB, Choline 100 mM, alone or combined; for RNA levels of PKM1, PKM2, MT-ATP6, MT-ATP8, SOD2, AKR1B1, HSPA2, TFPI2: Acetate 10 mM, FIG. 3; for RNA levels of CRYAB, HSPA2, ISYNA1: DMKG 10 mM, FIG. 9. As for the experimental part: as §1
200 ng of purified RNA were used for cDNA synthesis using SuperScript reverse transcriptase (Thermo Fisher). Expression levels of selected genes were analyzed using a CFX Connect Real-Time PCR detection system and SYBR Green Supermix (both from Bio-Rad). Expression levels of the selected genes were normalized in comparison to the housekeeper gene 18S.

The test system is the same in assay [5]. In words: Protein extraction and Western blot, XPA fibroblasts. It counts as cell-based. The following applies: Choline 100 mM alone or with Acetate 10 mM; FIG. 4 A. As for the experimental part: Histone samples were stored at −80° C.
(In general: Immunoblotting shows a protein as a band on a membrane.)

The test system is the same in assay [6]. The following applies: Choline 100 mM, Acetate 10 mM, alone or combined; FIG. 2 B, FIG. 7 B.
Assay [7] has the same test system. The experiment in a line: Apoptosis measurement (annexin V/propidium iodide flow cytometry). Conditions: Cisplatin 50 μM, 24 hours, XPA Control vs XPA Cisplatin; FIG. 1 B. The class given is cell-based. As for the experimental part: Primary human fibroblasts obtained from Xeroderma pigmentosum group A (XPA) patients and Cockayne Syndrome group B (CSB) patients were purchased from Coriell Institute (USA). Normal human fibroblasts (NHF) were isolated from skin samples obtained from healthy age-matched donors undergoing skin surgery. Cells were grown in Dulbecco's Modified Eagle Medium (DMEM) supplemented with 1% glutamine, antibiotics/antimycotics (growth medium) and 15% fetal calf serum (FCS) at 37° C. in a humidified atmosphere containing 5% CO2. For experiments, cells were detached from culture flasks by treatment with 0.05% trypsin solution (5 min/37° C.). After blocking trypsin activity by adding growth medium with 10% FCS, cells were spun down, resuspended in growth medium (15% FCS) and plated in appropriate culture dishes. Cells were allowed to grow until they reached around 80% confluency. […] Next day, cells were treated with the compounds Choline Chloride (here called Choline), or Sodium Acetate (here called Acetate), or both of them (both compounds were purchased from Sigma-Aldrich). […] Cells were analyzed by using a FACSCanto flow cytometry system. The percentage of early apoptotic cells defined as annexin V (+) and propidium iodide (-) was determined.
On the technique in general: Flow cytometry measures light scatter and fluorescence of single cells or particles in a stream.

As to `CCCCCCC(=O)OCC(COC(=O)CCCCCC)OC(=O)CCCCCC` [Triheptanoin], the “RNA levels of AKR1B1, SOD2” value in assay [1] (24 hours after UVB, Triheptanoin 100 μM, FIG. 13) is “only little or even no positive effect on the RNA level of AKR1B1, and SOD2”.
`C[N+](C)(C)CCO.[Cl-]` [Choline, Choline Chloride]: the “cellular ATP levels (anti-ATP antibody staining)” value in assay [2] (Example 2, FIG. 2 B, FIG. 7 A) is given as “accumulation of ATP in the cellular nuclei”; in assay [2] (Example 2.1, Sham and UVB, FIG. 11) it was “accumulation of ATP in the cellular nuclei”; in assay [3], “accumulation of ATP in the cellular nuclei”; in assay [6], “accumulation of ATP in the cellular nuclei”. In assay [4], the “RNA levels of PKM1, PKM2, MT-ATP6, MT-ATP8, SOD2, AKR1B1, HSPA2, TFPI2” value was “induced gene expression”. In addition, the “RNA levels of CRYAB, HSPA2, ISYNA1” value in assay [4] is “induced gene expression of CRYAB, HSPA2 and ISYNA1”. In addition, in assay [5], the GLUT1 protein level result was “equally increased”.
`CC(=O)[O-].[Na+]` [Acetate, Sodium Acetate]: the “cellular ATP levels (anti-ATP antibody staining)” value in assay [2] (Example 2, FIG. 2 B, FIG. 7 A) is reported as “no effect on cellular ATP abundance when given alone”; in assay [6], “no effect on cellular ATP abundance when given alone”. Besides, the “RNA levels of PKM1, PKM2, MT-ATP6, MT-ATP8, SOD2, AKR1B1, HSPA2, TFPI2” value in assay [4] is reported as “does not increase RNA levels after UVB”. For the same compound, the “RNA levels of SOD2, HSPA2” value in assay [1] (48 hours after UVB, Acetate 10 mM, FIG. 12) is listed as “only little or even no effect on the RNA levels of the depicted genes”.
`N.N.[Cl][Pt][Cl]` [Cisplatin]: in assay [7], the “apoptosis induction by the DNA-damaging agent alone” value is “increased apoptosis (cell death) induction”.
With `COC(=O)CCC(=O)C(=O)OC` [DMKG, Dimethyl-α-Ketoglutarate], the “RNA levels of CRYAB, HSPA2, ISYNA1” value in assay [4] is given as “only little (or even no) effect on most RNA levels”.
